In the supplement of paper PMC7695840 one finds IC50 data, which are given here for 29 compounds.

Structures are written as SMILES. Counter-ions that a name gives are not always drawn. A value given as a limit tells only on which side of the number the result lay.

Experiment [1] deals with Staphylococcus aureus MW2 (mecA+). The experiment in a line: IC50 (growth, competition assay). Particulars: cefoxitin: subinhibitory. In short, it runs like this:
(§1)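 Signals from DsRed (540/590) and GFP (485/520) were scaled on every plate between single-strain control medians, with No Treatment then set to 0.5. The cells were a 1:1 mix of pre-induced fluorescent S. aureus MW2 strains with and without the resistance gene, grown unshaken for 20 h at 37 °C and 90% humidity in LB in 1536-well plates under a subinhibitory drug dose set each day. Each strain's IC50 was defined as the dose halving the No Treatment signal, or the maximal signal.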

In experiment [2] the test system is Staphylococcus aureus MW2 delta-mecA (mecA-). Put plainly: IC50 (growth, competition assay). The conditions noted are these: cefoxitin: subinhibitory. A digest of the protocol:
as §1

What is called IC50 is the concentration that inhibits the measured activity by half. A low value points to greater potency. On to `COc1ccc(NC(=O)c2ccc(-c3ccc(-c4noc(C)n4)cc3C)cc2)cc1N1CCN(C)CC1`, for which the IC50 was 30.1 µM in experiment [1] (fluorescent label: DsRed), 44.9 µM in experiment [1] (fluorescent label: GFP), under 9.85 µM in experiment [2] (fluorescent label: DsRed) and 12.2 µM in experiment [2] (fluorescent label: GFP).

Take `O=C1C2CC=CCC2C(=O)N1SC(Cl)(Cl)Cl` (stereo unspecified) [CAPTAN]: the IC50 in experiment [1] (fluorescent label: DsRed) is 15.7 µM; in experiment [1] (fluorescent label: GFP), 18 µM; in experiment [2] (fluorescent label: DsRed) it was under 9.85 µM; in experiment [2] (fluorescent label: GFP) it was under 9.85 µM.

With `CCN1CCN(C(=O)N[C@@H](C(=O)N[C@@H]2C(=O)N3[C@@H]2SC(C)(C)[C@@H]3C(=O)O)c2ccccc2)C(=O)C1=O` [PIPRACIL], the IC50 was 26.8 µM in experiment [1] (fluorescent label: DsRed), 25.2 µM in experiment [1] (fluorescent label: GFP), under 9.85 µM in experiment [2] (fluorescent label: DsRed) and under 9.85 µM in experiment [2] (fluorescent label: GFP).

With `N[C@@H](Cc1cc(I)c(Oc2cc(I)c(O)c(I)c2)c(I)c1)C(=O)O` [L-Thyroxine], the IC50 in experiment [1] (fluorescent label: DsRed), in experiment [1] (fluorescent label: GFP), in experiment [2] (fluorescent label: DsRed) and in experiment [2] (fluorescent label: GFP) was under 9.85 µM each time.

With `Cc1onc(-c2c(Cl)cccc2Cl)c1C(=O)N[C@@H]1C(=O)N2[C@@H]1SC(C)(C)[C@@H]2C(=O)O` [DYNAPEN], the IC50 in experiment [1] (fluorescent label: DsRed), in experiment [1] (fluorescent label: GFP), in experiment [2] (fluorescent label: DsRed) and in experiment [2] (fluorescent label: GFP) was under 9.85 µM in each case.

`CC(C)(c1ccc(O)cc1)c1ccc(O)cc1` [BISPHENOL A]: the IC50 in experiment [1] (fluorescent label: DsRed) was 42.4 µM; in experiment [1] (fluorescent label: GFP), 64.7 µM; in experiment [2] (fluorescent label: DsRed), under 9.85 µM; in experiment [2] (fluorescent label: GFP) it was under 9.85 µM.

On to `C[C@H]1c2cccc(O)c2C(=O)C2=C(O)[C@]3(O)C(=O)C(C(N)=O)=C(O)[C@@H](N(C)C)[C@@H]3[C@@H](O)[C@@H]21` [Doxycycline hydrochloride], for which the IC50 in experiment [1] (fluorescent label: DsRed), in experiment [1] (fluorescent label: GFP), in experiment [2] (fluorescent label: DsRed) and in experiment [2] (fluorescent label: GFP) was under 9.85 µM throughout.

As for `C=CC(=O)Nc1cccc(Sc2nc(Nc3ccc(N4CCN(C)CC4)cc3)ncc2Cl)c1` [WZ8040], the IC50 in experiment [1] (fluorescent label: DsRed) was 17.1 µM; in experiment [1] (fluorescent label: GFP), 28.9 µM; in experiment [2] (fluorescent label: DsRed), 2.02 µM; in experiment [2] (fluorescent label: GFP), 2.67 µM.

Turning to `CCn1cc(C(=O)O)c(=O)c2cc(F)c(N3CCNC(C)C3)c(F)c21` (stereo unspecified) [Lomefloxacin hydrochloride (Maxaquin)], the IC50 is 1.76 µM in experiment [1] (fluorescent label: DsRed), 1.78 µM in experiment [1] (fluorescent label: GFP), 0.56 µM in experiment [2] (fluorescent label: DsRed) and under 0.498 µM in experiment [2] (fluorescent label: GFP).

For the compound `CO[C@H]1/C=C/O[C@@]2(C)Oc3c(C)c(O)c4c(c3C2=O)C2=NC3(CCN(CC(C)C)CC3)NC2=C(NC(=O)/C(C)=C\C=C\[C@H](C)[C@H](O)[C@@H](C)[C@@H](O)[C@@H](C)[C@H](OC(C)=O)[C@@H]1C)C4=O` [Rifabutin], the IC50 in experiment [1] (fluorescent label: DsRed), in experiment [1] (fluorescent label: GFP), in experiment [2] (fluorescent label: DsRed) and in experiment [2] (fluorescent label: GFP) was under 0.498 µM each time.

For `O=C1C(Cl)=C(Cl)C(=O)C(Cl)=C1Cl` [CHLORANIL], the IC50 in experiment [1] (fluorescent label: DsRed) amounted to 67.1 µM; in experiment [1] (fluorescent label: GFP) it was 83.8 µM; in experiment [2] (fluorescent label: DsRed), 16 µM; in experiment [2] (fluorescent label: GFP), 17.3 µM.

Turning to `Cc1nnc(SCC2=C(C(=O)O)N3C(=O)[C@@H](NC(=O)Cn4cnnn4)[C@H]3SC2)s1` [ANCEF], the half-inhibitory concentration (IC50) in experiment [1] (fluorescent label: DsRed) was 17.8 µM; in experiment [1] (fluorescent label: GFP), 14.9 µM; in experiment [2] (fluorescent label: DsRed), under 9.85 µM; in experiment [2] (fluorescent label: GFP) it was under 9.85 µM.

On to `CC(=O)NC1CCSC1=O` (stereo unspecified) [CITIOLASE], for which the IC50 in experiment [1] (fluorescent label: DsRed) is 56.8 µM; in experiment [1] (fluorescent label: GFP) it was 10.2 µM; in experiment [2] (fluorescent label: DsRed) it was 12.4 µM; in experiment [2] (fluorescent label: GFP) it was 38.9 µM.

With `CS(=O)(=O)c1ccc([C@@H](O)[C@@H](CF)NC(=O)C(Cl)Cl)cc1` [NUFLOR], the IC50 in experiment [1] (fluorescent label: DsRed), in experiment [1] (fluorescent label: GFP), in experiment [2] (fluorescent label: DsRed) and in experiment [2] (fluorescent label: GFP) was under 9.85 µM in each case.

On to `Oc1ccc2ccccc2c1SSc1c(O)ccc2ccccc12` [IPA-3], for which the IC50 in experiment [1] (fluorescent label: DsRed), in experiment [1] (fluorescent label: GFP), in experiment [2] (fluorescent label: DsRed) and in experiment [2] (fluorescent label: GFP) was under 9.85 µM throughout.

In the case of `CN[C@H]1CC[C@@H](c2ccc(Cl)c(Cl)c2)c2ccccc21` [Sertraline HCl], the IC50 in experiment [1] (fluorescent label: DsRed) was 94.5 µM; in experiment [1] (fluorescent label: GFP), 111 µM; in experiment [2] (fluorescent label: DsRed) it was 12 µM; in experiment [2] (fluorescent label: GFP) it was under 9.85 µM.

`CC(=O)OCC1=C(C(=O)O)N2C(=O)[C@@H](NC(=O)Cc3cccs3)[C@H]2SC1` [KEFLIN]: the IC50 in experiment [1] (fluorescent label: DsRed), in experiment [1] (fluorescent label: GFP), in experiment [2] (fluorescent label: DsRed) and in experiment [2] (fluorescent label: GFP) was under 9.85 µM each time.

In the case of `CCC(Cc1c(I)cc(I)c(N)c1I)C(=O)O` (stereo unspecified) [TELEPAQUE], the half-maximal inhibitory concentration (IC50) in experiment [1] (fluorescent label: DsRed) was 10.4 µM; in experiment [1] (fluorescent label: GFP), 27.5 µM; in experiment [2] (fluorescent label: DsRed) it was under 9.85 µM; in experiment [2] (fluorescent label: GFP) it was under 9.85 µM.

As for `COc1cc([C@@H]2c3cc4c(cc3[C@@H](O[C@@H]3O[C@@H]5CO[C@@H](C)O[C@H]5[C@H](O)[C@H]3O)[C@H]3COC(=O)[C@H]23)OCO4)cc(OC)c1O` [Etoposide], the IC50 was 14.9 µM in experiment [1] (fluorescent label: DsRed), 14.9 µM in experiment [1] (fluorescent label: GFP), under 9.85 µM in experiment [2] (fluorescent label: DsRed) and under 9.85 µM in experiment [2] (fluorescent label: GFP).

For the compound `[O-][n+]1ccccc1[S-].[O-][n+]1ccccc1[S-].[Zn+2]` [ZINC OMADINE], the IC50 in experiment [1] (fluorescent label: DsRed), in experiment [1] (fluorescent label: GFP), in experiment [2] (fluorescent label: DsRed) and in experiment [2] (fluorescent label: GFP) was under 9.85 µM each time.

In the case of `CCOC(=O)C1=C(C)NC(C)=C(C(=O)OC)C1c1cccc(Cl)c1Cl` (stereo unspecified) [Felodipine (Plendil)], the IC50 in experiment [1] (fluorescent label: DsRed) stood at 22.6 µM; in experiment [1] (fluorescent label: GFP), 31.8 µM; in experiment [2] (fluorescent label: DsRed), 7.13 µM; in experiment [2] (fluorescent label: GFP), 6.89 µM.

For the compound `C[C@H]1O[C@@H](n2cc(F)c(=O)[nH]c2=O)[C@H](O)[C@@H]1O` [Doxifluridine], the IC50 in experiment [1] (fluorescent label: DsRed) was 3.93 µM; in experiment [1] (fluorescent label: GFP) it was 11.1 µM; in experiment [2] (fluorescent label: DsRed), 0.661 µM; in experiment [2] (fluorescent label: GFP), under 0.498 µM.

Turning to `[O-][n+]1ccccc1[S-].[O-][n+]1ccccc1[S-].[Zn+2]` [Zinc Pyrithione], the IC50 in experiment [1] (fluorescent label: DsRed), in experiment [1] (fluorescent label: GFP), in experiment [2] (fluorescent label: DsRed) and in experiment [2] (fluorescent label: GFP) was under 9.85 µM in each case.

For `COC(=O)CC[C@@H](C)[C@H]1CC[C@H]2[C@@H]3CC[C@@H]4C[C@H](O)CC[C@]4(C)[C@H]3C[C@H](O)[C@]12C` [METHYL DEOXYCHOLATE], the concentration for half-maximal inhibition (IC50) is 15.4 µM in experiment [1] (fluorescent label: DsRed), 26.9 µM in experiment [1] (fluorescent label: GFP), 13.9 µM in experiment [2] (fluorescent label: DsRed) and 9.91 µM in experiment [2] (fluorescent label: GFP).

With `C[C@H]1COC2=C1C(=O)C(=O)c1c2ccc2c1CCCC2(C)C` [Cryptotanshinone], the IC50 in experiment [1] (fluorescent label: DsRed) was 12.1 µM; in experiment [1] (fluorescent label: GFP), 19.2 µM; in experiment [2] (fluorescent label: DsRed) it was under 9.85 µM; in experiment [2] (fluorescent label: GFP), under 9.85 µM.

In the case of `CC(C)=CCC[C@]1(C)C=Cc2c(O)c3c(c(CC=C(C)C)c2O1)O[C@]12C(=C[C@@H]4C[C@H]1C(C)(C)O[C@@]2(C/C=C(/C)C(=O)O)C4=O)C3=O` [GAMBOGIC ACID], the IC50 in experiment [1] (fluorescent label: DsRed), in experiment [1] (fluorescent label: GFP), in experiment [2] (fluorescent label: DsRed) and in experiment [2] (fluorescent label: GFP) was under 9.85 µM each time.

For `NC(N)=NC(=O)c1nc(Cl)c(N2CCCCCC2)nc1N` [5-(N,N-hexamethylene)amiloride], the IC50 in experiment [1] (fluorescent label: DsRed) worked out at 90.9 µM; in experiment [1] (fluorescent label: GFP), 108 µM; in experiment [2] (fluorescent label: DsRed), 46.2 µM; in experiment [2] (fluorescent label: GFP) it was 60.9 µM.

Take `NC1CCN(c2c(F)cc3c(=O)c(C(=O)O)cn(C4CC4)c3c2Cl)C1` (stereo unspecified) [CLINAFOXACIN HYDROCHLORIDE]: the IC50 in experiment [1] (fluorescent label: DsRed), in experiment [1] (fluorescent label: GFP), in experiment [2] (fluorescent label: DsRed) and in experiment [2] (fluorescent label: GFP) was under 9.85 µM each time.

For `CC[C@H]1OC(=O)[C@H](C)C(=O)[C@H](C)[C@@H](O[C@@H]2O[C@H](C)C[C@H](N(C)C)[C@H]2O)[C@](C)(OC)C[C@@H](C)C(=O)[C@H](C)[C@H]2N(CCCCn3cnc(-c4cccnc4)c3)C(=O)O[C@]12C` [KETEK], the IC50 in experiment [1] (fluorescent label: DsRed), in experiment [1] (fluorescent label: GFP), in experiment [2] (fluorescent label: DsRed) and in experiment [2] (fluorescent label: GFP) was under 9.85 µM throughout.
